From patent publication US20260042754A1, “Substituted Bicyclic Heteroaryl Sulfonamide Derivatives for the Treatment of Cancer” (NODUS ONCOLOGY LIMITED, priority 2022, published 2026) come the findings set out here.

Assay [1] concerns the target human PARG (PARG-NanoLuc fusion in HEK293T cells) (Homo sapiens (Human), UniProt Q86W56). Kind of assay: PARG NanoBRET-based cellular target engagement assay. The settings on record: HEK293T cells transfected with PARG-NanoLuc, NanoBRET probe 0.89 μM, 2 hours; read-out: PARG TE IC50. It is filed as cell-based. As for the experimental part: PARG Nano-luciferase construct: The PARG-NanoLuc® fusion vector was generated by Promega, by inserting the full length human PARG cDNA sequence encoding the 976 amino acid protein (Gene ID: 8505, UniProt: Q86W56) into the pNLF1-C [CMV/Hygro] vector (C-terminal fusions with NanoLuc® enzyme).
PARG target engagement tracer synthesis: The NanoBRET tracer for PARG was prepared following a previously reported general tracer synthesis procedure.
PARG Probe Displacement Assay Using NanoBRET: HEK293T (DSMZ #ACC 635) cells transiently transfected with the PARG-NanoLuc fusion construct were resuspended in phenol red-free OptiMEM (Gibco #11058-021) to a concentration of 2.4×10^5 cells/mL. 9 μL per well were then added to a white 384-well low volume microplate (Greiner #784080) and incubated for 24 hours under standard growth conditions.
Then compound was dispensed into each well using an Echo dispenser (BeckmanCoulter) to yield the pre-specified final concentration of the range of concentrations to be tested (typically 8-point serial concentrations ranging from either from 0.01 to 10 μM, or from 0.001 to 1 μM, or from 0.0001 to 0.1 μM), and being volume-corrected with 100% DMSO (0.5% final DMSO concentration in reaction mixtures).
After mixing and an incubation at room temperature for 15 min 1 μl of the NanoBRET probe (at 0.89 μM final concentration) was added to the microplate using a multichannel pipette. The plate was mixed and incubated in a 5% CO2 environment at 37° C. for 2 hours, and then 5 μL per well of a solution consisting of a 1:31.25 dilution of Nano-Glo substrate (Promega) and a 1:500 dilution of NanoLuc extracellular inhibitor (Promega) in phenol red-free OptiMEM was added to each well followed by another mixing step. Filtered luminescence was measured on an EnVision plate reader (PerkinElmer) equipped with a 460 nm filter (donor) and a 645 nm filter (acceptor). BRET ratios were plotted as concentration-response curves fitted to a sigmoidal 4-parameter logistic model to calculate IC50 values (Scigilian Analyze).

A further assay concerns NCI-H1650. Nature of the assay: Modified cell proliferation assay (CellTiter-Glo), NCI-H1650. The format is cell-based. The settings on record: modified protocol, 384-well, 300 cells per well, 120 h, highest concentration tested 30000 nM, read-out: NCI-H1650 GI50 (high PARG dependency). As for the experimental part:
The cell proliferation assay protocol was modified and used for RMUG-S for Examples 12-44, and subsequently used to test Examples 1-44 in the NCI-H1650 cell line.
NCI-H1650 (ATCC, #CRL-5883) or RMUG-S were seeded on day 1 at 300 cells per well in a 384-well plate (Greiner, #781080) that assure assay linearity and optimal signal intensity in 25 μL of RPMI1640 media (Pan Biotech, #P04-22100) containing 10% FCS (Capricorn, #FBS-11A; Lot. CP22-5141) and 1% Glutamine (Pan Biotech, #P04-80100). After incubation for 24 h in humidified chambers at 37° C./5% CO2, compounds/DMSO were dispensed at different concentrations using an Echo 520 (Beckman Coulter). Cells were further incubated for 120 h at 37° C. and 5% CO2. Cells treated with the compound vehicle DMSO were used as negative controls and cells treated with 10 μM Staurosporine (LC Laboratories, #S-9300) served as positive controls.
At day 6 the CellTiter Glo Reagent was prepared according to the instructions of the kit (Promega Inc.): Reagent was mixed 1:1 with cell culture medium. Thereon, mixture and assay plates were equilibrated at room temperature for 20 min. Equal volumes of the reagent-medium-mixture were added to the volume of culture medium present in each well. The plates were mixed at […] for 2 minutes on an orbital shaker (Timix5, Edmund Buehler GmbH). The microplates were then incubated at room temperature for 10 minutes for stabilization of the luminescent signal. Following incubation, the luminescence was recorded on a Victor X5 microplate reader (Perkin Elmer) using a 200 ms integration time. The data was then analyzed with Excel using the XLFIT Plugin (dose response Fit 205) for determination of the concentration necessary for half-maximal inhibition (i.e. the inflection point of the fitted curve).
As quality control the Z′-factor was calculated from 16 positive and negative control values. Only assay results showing a Z′-factor≥0.5 were used for further analysis.

The target in assay [2] is Recombinant His-tagged human PARG protein (Homo sapiens (Human), UniProt Q86W56). Kind of assay: PARG enzymatic assay (TFMU-ADPr fluorescence). It is filed as biochemical. The settings on record: 1 nM enzyme, 200 μM TFMU-ADPr, read after 30 minutes. As for the experimental part:
Inhibition of PARG enzymatic activity by compounds was determined as follows: Recombinant His-tagged human PARG protein expressed in Sf21 insect cells (Adipogen AG, #40T-0022) was aliquoted and stored at −80° C. until use. The artificial enzyme substrate 4-(trifluoromethyl)umbelliferone (TFMU)-ADPr was prepared essentially as described (Drown B S et al, Cell Chemical Biology 2018) and stored at −20° C. as 10 mM stock solutions in DMSO (dimethyl sulfoxide) until use. For reactions, typical final concentration of the enzyme was 1 nM and of the TFMU-ADPr 200 μM. Reactions were carried out in black 384-well low volume round bottom assay plates (Corning, #4514) in a final volume of 10 μL. To this end, PARG was diluted to 1.67 nM in reaction buffer (50 mM K2HPO4, 50 mM KCl, 10 mM β-mercaptoethanol, pH 7.4) and 6 μL were dispensed per assay well using a multichannel pipette. Then compound was dispensed into each well using an Echo dispenser (BeckmanCoulter) to yield the pre-specified final concentration of the range of concentrations to be tested (typically 8-point serial concentrations ranging from either from 0.01 to 10 μM, or from 0.001 to 1 μM, or from 0.0001 to 0.1 μM), and being volume-corrected with 100% DMSO (0.5% final DMSO concentration in reaction mixtures). Plates were mixed, and after 15 minutes 4 μL TFMU-ADPr was added into each well using a multichannel pipette followed by brief mixing. Fluorescence intensity signals were then measured after 30 minutes on an EnVision microplate reader (PerkinElmer) using 380/10 nm and 535/25 nm filters for the excitation and emission, respectively (gain: 150). The assay window was set using DMSO control (top) and a control containing no PARG enzyme (bottom). Delta values were plotted as concentration-response curves fitted to a sigmoidal 4-parameter logistic model to calculate IC50 values (Scigilian Analyze).

Read-outs that look alike come from different tables or passages of the source.

Chain of human PARG (PARG-NanoLuc fusion in HEK293T cells) (Q86W56 whole entry, the tested form may be a part): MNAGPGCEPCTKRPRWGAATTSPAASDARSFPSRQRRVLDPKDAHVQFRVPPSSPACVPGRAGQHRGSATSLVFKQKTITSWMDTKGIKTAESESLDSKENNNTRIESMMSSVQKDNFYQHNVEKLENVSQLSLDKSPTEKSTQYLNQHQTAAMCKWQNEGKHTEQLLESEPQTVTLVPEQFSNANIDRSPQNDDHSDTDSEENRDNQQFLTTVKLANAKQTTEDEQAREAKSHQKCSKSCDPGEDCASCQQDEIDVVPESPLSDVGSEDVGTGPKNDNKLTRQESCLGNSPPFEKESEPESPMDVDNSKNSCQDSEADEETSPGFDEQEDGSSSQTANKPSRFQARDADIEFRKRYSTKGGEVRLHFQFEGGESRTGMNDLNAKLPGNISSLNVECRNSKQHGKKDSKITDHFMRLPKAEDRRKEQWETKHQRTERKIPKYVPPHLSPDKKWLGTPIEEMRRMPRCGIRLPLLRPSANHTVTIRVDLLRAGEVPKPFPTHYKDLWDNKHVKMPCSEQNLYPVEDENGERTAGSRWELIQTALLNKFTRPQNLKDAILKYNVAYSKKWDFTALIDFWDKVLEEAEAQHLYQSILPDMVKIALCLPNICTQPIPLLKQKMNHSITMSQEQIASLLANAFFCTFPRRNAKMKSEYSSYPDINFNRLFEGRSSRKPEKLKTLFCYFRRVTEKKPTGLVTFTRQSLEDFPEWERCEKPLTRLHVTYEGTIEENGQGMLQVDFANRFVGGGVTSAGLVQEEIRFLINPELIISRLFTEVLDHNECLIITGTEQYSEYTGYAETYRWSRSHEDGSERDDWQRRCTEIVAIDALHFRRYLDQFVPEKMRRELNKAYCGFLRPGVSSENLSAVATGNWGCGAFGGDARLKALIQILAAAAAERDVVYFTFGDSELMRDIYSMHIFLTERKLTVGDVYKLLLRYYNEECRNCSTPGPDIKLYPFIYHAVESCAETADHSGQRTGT
Chain of Recombinant His-tagged human PARG protein (Q86W56 whole entry): as the sequence (Q86W56 whole entry, the tested form may be a part) above

As for `CO/N=c1\[nH]c2c(-c3ccc(C(=O)C4(C)CC4)cc3)cc(S(=O)(=O)NC3(C)CC3)cc2c(=O)n1Cc1cnn(C)c1` [Example 18, (E)-2-(methoxyimino)-3-((1-methyl-1H-pyrazol-4-yl)methyl)-8-(4-(1-methylcyclopropane-1-carbonyl)phenyl)-N-(1-methylcyclopropyl)-4-oxo-1,2,3,4-tetrahydroquinazoline-6-sulfonamide], the IC50 in assay [1] and in assay [2] was < 30 nM in each case. In the assay with NCI-H1650 (Homo sapiens, NCI-H1650), the GI50 (usually the concentration giving 50% growth inhibition) lay in the range of 500 to 2000 nM.

For `CCO/N=c1\[nH]c2ccc(S(=O)(=O)NC3(C)CC3)cc2c(=O)n1Cc1cnn(C)c1` [Example 10, 2-ethoxyimino-N-(1-methylcyclopropyl)-3-[(1-methylpyrazol-4-yl)methyl]-4-oxo-1H-quinazoline-6-sulfonamide], the IC50 (commonly the concentration that inhibits the measured activity by half) was 30 to 99 nM in assay [1] and < 30 nM in assay [2]. The GI50 in the assay on NCI-H1650 (Homo sapiens, NCI-H1650) is 500 to 2000 nM.

For the compound `CO/N=c1\[nH]c2c(N3CCN(C(=O)N(C)C)[C@H](C)C3)cc(S(=O)(=O)NC3(C)CC3)cc2c(=O)n1Cc1cnn(C)c1` [Example 41, (R,E)-4-(2-(methoxyimino)-3-((1-methyl-1H-pyrazol-4-yl)methyl)-6-(N-(1-methylcyclopropyl)sulfamoyl)-4-oxo-1,2,3,4-tetrahydroquinazolin-8-yl)-N,N,2-trimethylpiperazine-1-carboxamide], the 50% inhibitory concentration (IC50) in assay [1] and in assay [2] was < 30 nM each time. In the assay on NCI-H1650 (Homo sapiens, NCI-H1650), the GI50 was < 500 nM.

In the case of `CO/N=c1\[nH]c2c(N3CCN(C(=O)C4(C#N)CC4)[C@H](C)C3)cc(S(=O)(=O)NC3(C)CC3)cc2c(=O)n1Cc1cnn(C)c1` [Example 33, (R,E)-8-(4-(1-cyanocyclopropane-1-carbonyl)-3-methylpiperazin-1-yl)-2-(methoxyimino)-3-((1-methyl-1H-pyrazol-4-yl)methyl)-N-(1-methylcyclopropyl)-4-oxo-1,2,3,4-tetrahydroquinazoline-6-sulfonamide], the IC50 in assay [1] and in assay [2] was < 30 nM in each case. Moreover, the GI50 in the assay on NCI-H1650 (Homo sapiens, NCI-H1650) is < 500 nM.

Consider `CO/N=c1\[nH]c2c(-c3ccc(C(C)=O)cc3)cc(S(=O)(=O)NC3(C)CC3)cc2c(=O)n1Cc1cnn(C)c1` [Example 16, (E)-8-(4-acetylphenyl)-2-(methoxyimino)-3-((1-methyl-1H-pyrazol-4-yl)methyl)-N-(1-methylcyclopropyl)-4-oxo-1,2,3,4-tetrahydroquinazoline-6-sulfonamide], for which the IC50 in assay [1] and in assay [2] was < 30 nM throughout. Further, in the assay on NCI-H1650 (Homo sapiens, NCI-H1650), the GI50 is > 2000 nM.

As for `CO/N=c1\[nH]c2c(C3=C[C@@H](C)NCC3)cc(S(=O)(=O)NC3(C)CC3)cc2c(=O)n1Cc1cnn(C)c1` [Example 13, (R,E)-2-(methoxyimino)-8-(6-methyl-1,2,3,6-tetrahydropyridin-4-yl)-3-((1-methyl-1H-pyrazol-4-yl)methyl)-N-(1-methylcyclopropyl)-4-oxo-1,2,3,4-tetrahydroquinazoline-6-sulfonamide/(R,E)-2-(methoxyimino)-8-(2-methyl-1,2,3,6-tetrahydropyridin-4-yl)-3-((1-methyl-1H-pyrazol-4-yl)methyl)-N-(1-methylcyclopropyl)-4-oxo-1,2,3,4-tetrahydroquinazoline-6-sulfonamide], the results for the IC50 in assay [1] and in assay [2] were 30 to 99 nM and < 30 nM, respectively. The GI50 with NCI-H1650 lay in the range of 500 to 2000 nM.

Take `CO/N=c1\[nH]c2c(N3CCN(C(=O)C4(C)CCC4)[C@H](C)C3)cc(S(=O)(=O)NC3(C)CC3)cc2c(=O)n1Cc1cnn(C)c1` [Example 38, (R,E)-2-(methoxyimino)-3-((1-methyl-1H-pyrazol-4-yl)methyl)-8-(3-methyl-4-(1-methylcyclobutane-1-carbonyl)piperazin-1-yl)-N-(1-methylcyclopropyl)-4-oxo-1,2,3,4-tetrahydroquinazoline-6-sulfonamide]: the IC50 in assay [1] and in assay [2] was < 30 nM each time. In the assay with NCI-H1650 (Homo sapiens, NCI-H1650), the GI50 is < 500 nM.

`CO/N=c1\[nH]c2c(N3CCN(C(C)=O)[C@H](C)C3)cc(S(=O)(=O)NC3(C)CC3)cc2c(=O)n1Cc1cnn(C)c1` [Example 12, (2E)-2-methoxyimino-N-(1-methylcyclopropyl)-3-[(1-methylpyrazol-4-yl)methyl]-4-oxo-8-[(3R)-4-acetyl-3-methyl-piperazin-1-yl]-1H-quinazoline-6-sulfonamide]: the IC50 in assay [1] and in assay [2] was < 30 nM each time. Besides, the GI50 in the assay on NCI-H1650 (Homo sapiens, NCI-H1650) was < 500 nM.

Consider `CO/N=c1\[nH]c2c(N3CCN(C(=O)C4(N(C)C)CC4)[C@H](C)C3)cc(S(=O)(=O)NC3(C)CC3)cc2c(=O)n1Cc1cnn(C)c1` [Example 34, (R,E)-8-(4-(1-(dimethylamino)cyclopropane-1-carbonyl)-3-methylpiperazin-1-yl)-2-(methoxyimino)-3-((1-methyl-1H-pyrazol-4-yl)methyl)-N-(1-methylcyclopropyl)-4-oxo-1,2,3,4-tetrahydroquinazoline-6-sulfonamide], for which the IC50 in assay [1] and in assay [2] was < 30 nM in each case. Also, the GI50 in the assay with NCI-H1650 (Homo sapiens, NCI-H1650) is < 500 nM.

Turning to `CO/N=c1\[nH]c2c(N3CCN(C(=O)C4(C(F)(F)F)CC4)[C@H](C)C3)cc(S(=O)(=O)NC3(C)CC3)cc2c(=O)n1Cc1cnn(C)c1` [Example 32, (R,E)-2-(methoxyimino)-3-((1-methyl-1H-pyrazol-4-yl)methyl)-8-(3-methyl-4-(1-(trifluoromethyl)cyclopropane-1-carbonyl)piperazin-1-yl)-N-(1-methylcyclopropyl)-4-oxo-1,2,3,4-tetrahydroquinazoline-6-sulfonamide], in the assay on NCI-H1650 (Homo sapiens, NCI-H1650), the GI50 is < 500 nM.
